Laboratory results reported in patent US11084783B2, “O-alkyl-benzylideneguanidine derivatives and therapeutic use for the treatment of disorders associated with an accumulation of misfolded proteins” (INFLECTIS BIOSCIENCE, priority 2014, dated 2021).

How the values were obtained:
HeLa cells = assay: Cytoprotection from ER stress (tunicamycin), cell viability by WST-8; assay type: cell-based; set-up: key to Cytoprotection from ER stress compared to guanabenz: +: lower cytoprotective effect compared to Guanabenz; ++: similar cytoprotective effect compared to Guanabenz; +++: higher cytoprotective effect compared to Guanabenz; conditions: for Cytoprotection from ER stress compared to guanabenz: HeLa cells, 6 hour exposure to tunicamycin 5 μg/mL, compounds 0.5-10 μM, viability 48 h or 72 h
Excerpt: Cytoprotection against ER stress can be measured by a suitable assay. For example, cytoprotection can be measured in HeLa cells in which ER stress is elicited by the addition of media containing tunicamycin, a mixture of homologous nucleoside antibiotics that inhibits the UDP-HexNAc: polyprenol-P HexNAc-1-P family of enzymes and is used to induce unfolded protein response. Cell viability can be detected in the presence and absence of inhibitor compounds after a set period of time, by measuring the reduction of WST-8 into formazan using a standard cell viability kit (such as Cell Viability Counting Kit-8 from Dojindo). Cytoprotection from ER stress is measured in terms of the percentage increase in viable cells (relative to control) after ER stress. Further details of a suitable assay are set forth in the accompanying Examples section.
This assay is described in Tsaytler et al. (Science 2011). HeLa Cells were cultured in Eagle's Minimum Essential Medium (EMEM) supplemented with Glutamine, Sodium Pyruvate, Non-Essential Amino Acids, Penicillin and Streptomycin containing 10% Foetal Bovine Serum (FBS), at 37° C. in 5% CO2 atmosphere. Cells were plated in 96 well plates at a density of 17,000 cells/mL the day before the treatment. ER stress was elicited by addition of 5 μg/mL tunicamycin (Sigma-Aldrich) together with PPP1R15A inhibitors (0.5-10 μM). Media were changed 6h later with fresh media and the cytoprotection was maintained by the addition of PPP1R15A inhibitors (0.5-10 μM). Cell viability was assessed by measuring the reduction of WST-8 into formazan using Cell Counting Kit-8 (Sigma) according to the supplier's recommendation, 48 h or 72h after tunicamycin treatment. Cytoprotection from ER stress is measured in terms of cytoprotective potency effect compared to the reference compound Guanabenz (Tsaytler et al., Science 2011) after ER stress: • ‘+’ no cytoprotective effect; • ‘+’ lower cytoprotective effect compared to Guanabenz; • ‘++’ similar cytoprotective effect compared to Guanabenz; • ‘+++’ higher cytoprotective effect compared to Guanabenz.
Table 1 summarizes the results of cytoprotective effect of different compounds of the invention, compared to guanabenz, after the stress induced by a 6 hour exposure of tunicamycin.

human alpha2A receptor = biological target: T1, human alpha2A receptor (Homo sapiens, UniProt P08913); assay: Functional GPCR assay for adrenergic α2A receptor (CellKey detection method); assay type: cell-based; conditions: agonist activity, CHO cells expressing human alpha2A receptor, impedance (CellKey); read-out: Functional adrenergic alpha2 receptor assay EC50
T1 construct: CHO cells endogenously expressing human alpha2A receptor; endogenous in cells; host or cells: CHO cells
T1 sequence (P08913 1-465): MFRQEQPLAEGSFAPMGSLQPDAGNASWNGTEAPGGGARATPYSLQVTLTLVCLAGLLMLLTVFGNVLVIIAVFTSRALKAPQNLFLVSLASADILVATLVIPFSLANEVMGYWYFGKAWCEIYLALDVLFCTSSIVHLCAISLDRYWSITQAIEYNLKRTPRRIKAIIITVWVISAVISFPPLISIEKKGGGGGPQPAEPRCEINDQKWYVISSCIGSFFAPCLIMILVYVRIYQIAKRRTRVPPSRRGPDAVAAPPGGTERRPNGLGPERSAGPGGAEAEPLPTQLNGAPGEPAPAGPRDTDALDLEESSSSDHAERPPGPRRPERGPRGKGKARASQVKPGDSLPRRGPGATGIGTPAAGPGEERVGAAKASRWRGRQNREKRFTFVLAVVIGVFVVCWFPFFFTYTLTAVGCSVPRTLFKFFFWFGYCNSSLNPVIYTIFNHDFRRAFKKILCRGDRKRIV
Method: The agonist activity of compounds was evaluated on CHO cells […] expressing human alpha2A receptor and was determined by measuring their effects on impedance modulation using the CellKey detection method. Cells were seeded onto 96-well plate at density of 6×10^4 cells/well in HBSS buffer (Invitrogen)+20 mM HEPES (Invitrogen) with 0.1% BSA and are allowed to equilibrate for 60 min at 28° C. before the start of the experiment. Plates were placed onto the system and measurements were made at a temperature of 28° C. Solutions were added simultaneously to all 96 wells using an integrated fluidics system: HBSS (basal control), reference agonist at 100 nM (stimulated control), reference agonist (EC50 determination) or the test compounds. Impedance measurements are monitored for 10 minutes after ligand addition. The standard reference agonist is epinephrine, which is tested in each experiment at several concentrations to generate a concentration-response curve from which its EC50 value is calculated.
Dose-response data from test compounds were analysed with Hill software using non-linear regression analysis of the concentration-response curves generated with mean replicate values using Hill equation curve fitting.

SMILES	Cytoprotection from ER stress compared to guanabenz (HeLa cells)	EC50 (human alpha2A receptor)	protection of Hela cells from ER stress (FIG. 1) (HeLa cells; ER stress induced by 6 hour exposure to tunicamycin)
CCONC(=N)N/N=C/c1c(F)cccc1Cl [Compound 17, 2-(2-chloro-6-fluorobenzylidene)-N-ethoxyhydrazinecarboximidamide]	+++	> 33.3 µM	–
CCO/N=C(\N)N/N=C/c1ccccc1Cl [Compound 10, 2-(2-chlorobenzylidene)-N′-ethoxyhydrazinecarboximidamide]	++	> 33.3 µM	–
CCCONC(=N)N/N=C/c1ccccc1Cl [Compound 12, 2-(2-chlorobenzylidene)-N-propoxyhydrazinecarboximidamide]	+++	> 33.3 µM	dose dependent protection
CCONC(=N)N/N=C/c1c(Cl)cccc1Cl [Compound 11, 2-(2,6-dichlorobenzylidene)-N-ethoxyhydrazinecarboximidamide]	+++	> 0.7 µM	–
